Reference: ChEMBL document CHEMBL1938317, “Structure-based de novo design and biochemical evaluation of novel BRAF kinase inhibitors” (Bioorg Med Chem Lett, 2012)

What follows are compounds tested against Serine/threonine-protein kinase B-raf (Homo sapiens, UniProt P15056).
Sequence of Serine/threonine-protein kinase B-raf (P15056 whole entry): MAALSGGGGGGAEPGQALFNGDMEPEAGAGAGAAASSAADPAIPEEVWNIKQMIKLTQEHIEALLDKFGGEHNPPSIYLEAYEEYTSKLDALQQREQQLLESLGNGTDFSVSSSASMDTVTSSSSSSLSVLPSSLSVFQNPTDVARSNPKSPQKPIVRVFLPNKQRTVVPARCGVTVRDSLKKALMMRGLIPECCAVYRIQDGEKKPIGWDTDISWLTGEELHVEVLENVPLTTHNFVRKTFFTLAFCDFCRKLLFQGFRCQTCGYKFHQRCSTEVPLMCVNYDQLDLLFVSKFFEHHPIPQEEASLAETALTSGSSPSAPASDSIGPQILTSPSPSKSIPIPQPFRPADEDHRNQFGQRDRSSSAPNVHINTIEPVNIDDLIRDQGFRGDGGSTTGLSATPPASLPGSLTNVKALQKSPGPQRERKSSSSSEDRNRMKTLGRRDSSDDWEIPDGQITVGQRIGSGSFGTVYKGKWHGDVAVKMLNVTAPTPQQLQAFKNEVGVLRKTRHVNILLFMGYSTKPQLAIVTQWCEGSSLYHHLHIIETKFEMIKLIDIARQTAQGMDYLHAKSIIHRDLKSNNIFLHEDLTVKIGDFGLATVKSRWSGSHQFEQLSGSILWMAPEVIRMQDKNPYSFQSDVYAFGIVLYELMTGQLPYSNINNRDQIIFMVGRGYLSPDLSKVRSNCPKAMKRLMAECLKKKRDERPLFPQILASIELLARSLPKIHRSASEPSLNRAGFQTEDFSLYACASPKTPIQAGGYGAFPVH
Description: Inhibition of BRAF by high-throughput assay
For `Nc1nc(Nc2ccc(F)c(Cl)c2)c2nc[nH]c2n1`, the Kd was 3.2 µM. With `COc1ccc(Nc2nc(N)nc3[nH]cnc23)cc1OC` the Kd was 5.1 µM. With `Nc1nc(Nc2cccc(F)c2)c2[nH]cnc2n1` the Kd was 4.8 µM. `CN(C)C(=O)Cc1ccc(-c2cccc3c(Nc4cccc(O)c4)nncc23)cc1` gave a Kd of 9.6 µM. Compound `Nc1nc(Nc2cccc(O)c2)c2[nH]cnc2n1` has a Kd of 5.8 µM. `CCC(=O)c1cccc(Nc2nc(N)nc3nc[nH]c23)c1` showed a Kd of 2.8 µM. In the case of `Nc1nc(Nc2cccc(Br)c2)c2[nH]cnc2n1`, the Kd is reported as 2.2 µM. For `O=C(O)c1ccc(Nc2ncnc3nc[nH]c23)cc1`, the Kd was 9.4 µM. Work on `Nc1nc(Nc2ccccc2O)c2[nH]cnc2n1` yielded a Kd of 2 µM. `COc1ccc(Nc2nncc3c(-c4ccc(O)cc4)cccc23)cc1` was tested, and the Kd was 3.7 µM. `NC(=O)Cc1ccc(Nc2nncc3c(-c4ccc(O)cc4)cccc23)cc1` gave a Kd of 8 µM. For `c1nc2c(Nc3ccc4c(c3)OCCO4)nc(Nc3ccc4c(c3)OCCO4)nc2[nH]1`, the Kd was 5.2 µM. Work on `Nc1nc(Nc2cccc(C(F)(F)F)c2)c2[nH]cnc2n1` yielded a Kd of 1.7 µM. `COc1cc(Nc2nc(N)nc3nc[nH]c23)cc(OC)c1OC` showed a Kd of 4.1 µM. With `Nc1nc(Nc2ccc(Cl)c(Cl)c2)c2nc[nH]c2n1` the Kd was 3.6 µM. For `COc1cc(Nc2nc(N)nc3[nH]cnc23)cc(OC)c1`, the Kd was 3.1 µM. `NS(=O)(=O)c1ccc(Nc2nncc3c(-c4ccc(O)cc4)cccc23)cc1` showed a Kd of 4.7 µM. `NC(=O)COc1ccc(Nc2nncc3c(-c4ccc(O)cc4)cccc23)cc1` was tested, and the Kd was 2.5 µM. `Cc1ccc(Nc2nncc3c(-c4ccc(O)cc4)cccc23)cc1` gave a Kd of 4.7 µM. In the case of `Oc1ccc(-c2cccc3c(Nc4cccc(O)c4)nncc23)cc1`, the Kd is reported as 5.1 µM. With `Nc1nc(Nc2cccc(Cl)c2)c2nc[nH]c2n1` the Kd was 3 µM. Work on `CC(=O)Nc1ccc(Nc2ncnc3nc[nH]c23)cc1` yielded a Kd of 0.79 µM.
